Experimental findings from patent publication US20130101582A1, “Tiki1 and Tiki2, Wnt Inhibitors” (CHILDREN'S MEDICAL CENTER CORPORATION, priority 2010, published 2013) are described below.

The test system of one test is nuclear beta-catenin. Put plainly: Wnt-induced nuclear beta-catenin accumulation in Xwnt8-responding animal cap cells. It counts as in vivo, Xenopus. The settings on record: stage 9 animal cap cells neighbouring Xwnt8-expressing cells; 200 pg mRNA. The protocol: FIGS. 7A-C are each schematics with accompanying bar graphs showing that Tiki1 inhibits Wnt/β-catenin signaling in both Wnt-producing and Wnt-responding cells. 7A, Tiki1 acts in Xwnt8-producing cells. Xwnt8 mRNA (20 pg) was co-injected with Tiki1 or LDLR mRNA (100 pg) into a single blastomere at the 8-cell stage, while S01234-Luciferase (140 pg) plus TK-Renilla (1.25 pg) reporter DNAs were injected into a neighboring blastomere. 7B, Tiki1 acts in Xwnt8-responding cells. S01234-Luciferase and TK-Renilla reporter DNAs were co-injected with Tiki1 or LDLR mRNA in a single blastomere, while Xwnt8 mRNA was injected into a neighboring blastomere. Luciferase readings were normalized to Renilla. 7C, Tiki1 reduces nuclear beta-catenin levels in Xwnt8-responding cells. […] Only cells within the distance of five cell bodies from Xwnt8-expressing cells were counted in any given field. […]
Secondly Wnt-induced nuclear beta-catenin accumulation was monitored. […] In confocal microscopy Xwnt8-expressing cells were traced by RFP (red), whereas Wnt-responding cells that expressed Tiki1 or LDLR were traced by FLD (green), and naive cells descended from uninjected blastomeres lacked green or red fluorescence. […]

The test system of test [1] is Super-TOPFLASH (STF) luciferase reporter. Put plainly: Super-TOPFLASH (STF) luciferase reporter induction in STF cells. The format is cell-based. The settings on record: 6-hour treatment; not shown. The protocol: A high throughput screen (HTS) is used to identify compounds that enhance LRP5/6 signaling as potential therapeutics for osteoporosis or cellular proliferative disorders. We employ a Wnt responsive cell line carrying a Super-TOPFLASH (STF) luciferase reporter (Wnt-responsive) (Major et al. Science. 2007. 316:1043-6). These STF cells grow as an adherent monolayer making them ideally suited for 384-well-plate screening format. […] Different conditions are tested and an acceptable z′ score of 0.5 or above (z′ measures HTS quality and reproducibility (Zhang et al. J Biomol Screen. 1999. 4:67-73)) is achieved.
(In general: In a reporter assay the amount or activity of a reporter protein is the signal.)

As to “LDLR: negative control, expressed from injected LDLR mRNA”, the “Cells displaying nuclear beta-catenin” value in the test on nuclear beta-catenin was determined as 80%.

B1: Wnt3a: Wnt ligand added to STF reporter cells (protein)
chain: SYPIWWSLAVGPQYSSLGSQPILCASIPGLVPKQLRFCRNYVEIMPSVAEGIKIGIQECQHQFRGRRWNCTTVHDSLAIFGPVLDKATRESAFVHAIASAGVAFAVTRSCAEGTAAICGCSSRHQGSPGKGWKWGGCSEDIEFGGMVSREFADARENRPDARSAMNRHNNEAGRQAIASHMHLKCKCHGLSGSCEVKTCWWSQPDFRAIGDFLKDKYDSASEMVVEKHRESRGWVETLRPRYTYFKVPTERDLVYYEASPNFCEPNPETGSFGTRDRTCNVSSHGIDGCDLLCCGRGHNARAERRREKCRCVFHWCCYVSCQECTRVYDVHTCK
With B1, the “Induction of the STF reporter” value in test [1] was 30-40 folds.
